Measured values as given in patent US11332716B2, “Methods and compositions for producing pancreatic beta cells” (The Regents of the University of California, priority 2015, dated 2022).

Tests used:
[1] = system: pancreatic endodermal progenitor cells (cPE cells); assay: Maturation of cPE cells into C-peptide positive cells, chemical screen; conditions: added individually to basal pancreatic differentiation media
[2] = system: pancreatic endodermal progenitor (cPE) cells; assay: Protocol 2 maturation of cPE cells into cPB cells (INSULIN mRNA, C-peptide cells)
[3] = system: MEL1 INS GFP/W hESC spheres; assay: hESC suspension differentiation, qPCR of NGN3 and NKX2.2 at day 8; type: cell-based, human; conditions: compared to RCN condition / during RCN or R treatment
Experimental: FIGS. 16A-16D. Published protocols result in precocious endocrine differentiation by NEUROG3 activation. FIGS. 16A-C: Analysis of key pancreatic progenitor markers in clusters differentiated as outlined in FIG. 15A. R=Retinoic acid, C=Cyclopamine, N=Noggin, E=Epidermal growth factor, K=Keratinocyte growth factor, T=TBP, and A=ALK inhibitor. Data shown are representative of two independent experiments. FIG. 16A: PDX1, INS, GCG, NEUROG3, and NKX6.1 protein expression was assessed by whole mount staining of differentiated clusters at indicated time points. Note precocious expression of the endocrine marker NEUROG3 in the absence of NKX6.1 protein at days 6-9. FIGS. 16B and 16C: Flow cytometric quantification of PDX1^+ (orange gate), PDX1^+/NKX6.1^+ (blue gate), INS^+/NKX6.1^+ (green gate), and INS^+/NKX6.1^− (red gate) cells at indicated time points. […]
Total RNA was isolated with TRIZOL (Sigma) or micro/mini RNAeasy kit (Qiagen) and reverse transcribed using the iScript cDNA Kit (Bio-Rad) according to manufacturer's instructions. qPCR analysis was performed on an ABI 7900 HT Fast Real-Time PCR System (Applied Biosystems) and CFX Connect Real Time System (Biorad) using standard protocols. […] P-values were calculated using a two-tailed student's t-test. […]

[4] = system: PDX1+/NKX6.1+ pancreatic progenitor cells; assay: Direct differentiation of PDX1+/NKX6.1+ progenitors to pancreatic beta cells; type: cell-based, human; conditions: alone; does not maintain any progenitor expression
Experimental: Variations on the direct differentiation method disclosed herein (see, e.g., Examples 13 and 17) were also developed that yielded efficient and cost-effective production of functional pancreatic beta cells from pluripotent stem cells. Illustrated schematically in FIG. 24, one method according to the disclosure provides embryonic stem cells (e.g., human embryonic stem cells) that were exposed to retinoic acid and incubated for a sufficient time to see expression of PDX1. During this time, the cells were not exposed to bone morphogenetic protein (BMP), which can lead to precocious endocrine differentiation and, ultimately, the production of non-functional polyhormonal cells. PDX1^+ cells were then exposed to 50 ng/ml epidermal growth factor (EGF) and 50 ng/ml keratinocyte growth factor (KGF or K) in DMEM basal media containing IX GLUTAMAX™ (Invitrogen), IX non-essential amino acids (Invitrogen) and serum-free IX B27supplement (Life Technologies) for an extended period of 24-48 hours under the culture conditions disclosed herein. The extended incubation of pancreatic progenitor PDX1^+ cells in the absence of BMP led to the efficient production of […] pancreatic progenitor cells. The PDX1^+NKX6.1^+cells were then incubated in an optimized combination of growth factors to induce NGN3 expression while maintaining expression of PD1 and NKX6.1. […]

[5] = system: MEL1 INS GFP/W hESC spheres; assay: hESC suspension differentiation, flow cytometry of PDX1 and NKX6.1; type: cell-based, human; conditions: alone, conditions 2 and 3; day 9.5
From the text: Treatments consisted of combinations of Cyclopamine (C), Noggin (N), and retinoic acid (R) during days 6-8, followed by subdivision of each condition into three treatment groups during day 9-9.5. Group 1) continuation of day 6-8 treatment; Group 2) treatment with EGF and KGF (EK); Group 3) treatment with EGF, KGF, and Noggin (EKN). […] Data shown are representatives of results obtained in two independent experiments. […] FIG. 17B: Quantification of PDX1 (orange gate) and NKX6.1 (blue gate) protein expressing cells in individual conditions after 9.5 days of differentiation.
Suspension-based differentiations were carried out as follows. Briefly, confluent cultures were dissociated into single cell suspension by incubation with TrypLE (Gibco). […] To induce definitive endoderm differentiation, aggregates were collected 24 hours later in a 50 ml falcon tube, allowed to settle by gravity, washed once with PBS and re-suspended in d1 media (RPMI (Gibco) containing 0.2% FBS, 1:5000 ITS (Gibco), 100 ng/ml Activin A, and 50 ng/ml WNT3a (R&D systems)). Clusters from 3 wells were combined into 2 wells at this point and distributed into fresh low-attachment plates in 5.5 ml d1 media. Media thereafter was changed daily, by removing either 4.5 ml media (at the end of d1) or 5.5 ml media the following days and adding back 5.5 ml fresh media until day 9. After day 9, only 5 ml of media was removed and added daily.
Briefly, spheres were collected and allowed to settle by gravity. Clusters were washed once in PBS and dissociated by gentle pipetting after 12-15 minutes incubation in Accumax (Innovative Cell Technologies). For sorting, cell suspensions were filtered and re-suspended in FACS buffer consisting of phosphate-buffered saline (PBS) (UCSF cell culture facility) containing 2 mM EDTA (Ambion) and 1% BSA (Sigma). Dead cells were excluded by DAPI (Sigma) staining Cell sorting was performed on a FACS Aria II (BD Bioscience). […]

[6] = system: MEL1 INS GFP/W hESC spheres; assay: hESC suspension differentiation, NEUROG3 immunofluorescence; type: cell-based, human; conditions: days 6-9.5
Experimental: Undifferentiated MEL1 INS^GFP/W reporter cells (Micallef et al, 2012) were maintained on mouse embryo fibroblast feeder layers (Millipore) in hESC media as described (Guo et al, 2013b). Suspension-based differentiations were carried out as follows. Briefly, confluent cultures were dissociated into single cell suspension by incubation with TrypLE (Gibco). Cells were counted and each well of 6-well low-adherence plates were seeded with 5.5×10^6 cells in 5.5 ml hES media supplemented with 10 ng/ml Activin A (R&D systems) and 10 ng/ml HeregulinB1 (Peprotech). Plates were placed on an orbital shaker at 100 rpm to induce sphere formation, as described (Schulz et al, 2012). To induce definitive endoderm differentiation, aggregates were collected 24 hours later in a 50 ml falcon tube, allowed to settle by gravity, washed once with PBS and re-suspended in d1 media (RPMI (Gibco) containing 0.2% FBS, 1:5000 ITS (Gibco), 100 ng/ml Activin A, and 50 ng/ml WNT3a (R&D systems)). Clusters from 3 wells were combined into 2 wells at this point and distributed into fresh low-attachment plates in 5.5 ml d1 media. Media thereafter was changed daily, by removing either 4.5 ml media (at the end of d1) or 5.5 ml media the following days and adding back 5.5 ml fresh media until day 9. After day 9, only 5 ml of media was removed and added daily. […]

`O=C1O[C@H]([C@@H](O)CO)C(O)=C1O` [Vitamin C] was tested, and the “percentage of C-peptide positive cells, individual supplementation” value [1] was “effective in increasing”, the “number of C-peptide positive cells co-expressing PDX1 and NKX6.1” value [2] was “increased” and the “expression of the INSULIN gene (mRNA)” value ([2]; day 21, compared to DMSO controls) was “promoted expression”. For the same molecule, the “NEUROG3 (NGN3) and NKX2.2 mRNA transcripts” value [3] was “did not significantly lower”.

In the case of `C[C@H](NC(=O)Cc1cc(F)cc(F)c1)C(=O)N[C@@H]1C(=O)N(C)c2ccccc2-c2ccccc21` [gamma secretase inhibitor XX], the endocrine differentiation [4] is reported as “induces endocrine differentiation efficiently”.

B1: Noggin: the BMP inhibitor Noggin (protein, UniProt Q13253 28-232, looked up)
Noggin: QHYLHIRPAPSDNLPLVDLIEHPDPIFDPKEKDLNETLLRSLLGGHYDPGFMATSPPEDRPGGGGGAAGGAEDLAELDQLLRQRPSGAMPSEIKGLEFSEGLAQGKKQRLSKKLRRKLQMWLWSQTFCPVLYAWNDLGSRFWPRYVKVGSCFSKRSCSVPEGMVCKPSKSVHLTVLRWRCQRRGGQRCGWIPIQYPIISECKCSC
For B1, the “generation of PDX1+ cells over base media alone” value [5] was “did not result in enhanced generation” and the “NEUROG3 expression (endocrine differentiation)” value [6] was “noted only when spheres had been exposed to N”.
